The IC50 is the concentration at which inhibition is half-maximal. For orientation: melting point means the temperature of the solid-liquid transition.

Structures can show the parent of a compound that is named as a salt.

The target in data set [1] is T1, Human CCR3 (Homo sapiens, UniProt P51677).
T1 construct: The cloned CCR3 cDNA was constructed with pcDNA3 vector and transfected into a IC562 cell line; expressed in transfected cells
T1 sequence (P51677 1-355): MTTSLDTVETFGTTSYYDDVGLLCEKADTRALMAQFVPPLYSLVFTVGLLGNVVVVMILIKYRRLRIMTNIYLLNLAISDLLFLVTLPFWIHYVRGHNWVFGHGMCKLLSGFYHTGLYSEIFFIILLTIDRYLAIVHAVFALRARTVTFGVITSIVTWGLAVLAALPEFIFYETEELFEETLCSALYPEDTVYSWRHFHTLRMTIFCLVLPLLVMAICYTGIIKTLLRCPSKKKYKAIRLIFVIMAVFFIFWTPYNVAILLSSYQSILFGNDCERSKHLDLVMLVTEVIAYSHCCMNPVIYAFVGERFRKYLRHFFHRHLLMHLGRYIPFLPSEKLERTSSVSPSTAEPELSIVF
The data set can be described thus: Receptor binding assay (RBA), [125I]-eotaxin. As to conditions: human CCR3-transformed K562 cells, 0.1 nM [125I]-eotaxin; compounds of about 40 to 90% purity; read-out: Activity grade RBA (IC50 class). How it is done: [Determination of IC50 Values of Compounds in Receptor Binding Assay]
• Human CCR3-transformed K562 cells were used. The cloned CCR3 cDNA was constructed with pcDNA3 vector and transfected into a IC562 cell line. The human CCR3-transformed K562 cells were maintained in RPMI-1640 (Cat.#22400-089, Life Technologies) supplemented with 10% FCS (Cat.#A-1115-L, Hyclone), 55 μM 2-mercaptoethanol (Cat.#21985-023, Life Technologies), 1 mM sodium pyruvate (Cat.#11360-070, Life Technologies), 100 units/ml of penicillin G and 100 μg/ml of streptomycin (Cat.#15140-122, Life Technologies), and 0.4 mg/ml of Geneticin (Cat.#10131-035, Life Technologies)(hereinafter called “culture medium”). Before the receptor binding assay, cells were pretreated with 5 mM sodium butyrate (Cat.#193-01522, Wako)-containing the culture medium (2×10^5 cells/ml) for 20-24 hours to increase the expression of CCR3. (2) Receptor Binding Assay (RBA) • Butyrate-pretreated cells, suspended in binding buffer (25 mM HEPES pH 7.6, 1 mM CaCl2, 5 mM MgCl2, 0.5% BSA, 0.1% NaN3) at a cell density of 2×10^6 cells/ml, were added into 60 μl/well in the 96-well round bottom polypropylene plate (Cat.#3365, Costar). Compounds, diluted with the binding buffer (4-times higher concentration of the final concentration), were added into 30 μl/well in the polypropylene plate. [^125I]-labeled human eotaxin (Cat.#IM290, Amersham Pharmacia Biotech), diluted with the binding buffer at the concentration of 0.4 nM (final concentration; 0.1 nM), was added into 30 μl/well in the polypropylene plate. Total 120 μl/well of binding reaction mixture (60 μl/well of cell suspension, 30 μl/well of compound solution, and 30 μl/well of [^125I]-labeled eotaxin) were incubated in the polypropylene plate for 1 hour at room temperature after the incubation, 100 μl/well of the reaction mixture was transferred to a filtration plate (Cat.#MAFB-N0B, Millipore), and washed with the washing buffer (25 mM HEPES pH 7.6, 1 mM CaCl2, 5 mM MgCl2, 0.5% BSA, 0.1% NaN3, 0.5 M NaCl) twice. The 96-well filtration plate was pretreated with 100 μl/well of 0.5% polyethylenimine (Cat.#P-3143, Sigma) for 2-4 hours at room temperature and washed with the washing buffer twice before use. The non-specific binding was determined by parallel incubation in the presence of 500 nM of non-labeled eotaxin (Cat.#23209, Genzyme Techne). The radioactivities remained on the filter were measured by liquid scintillation counter (TopCount™, Packard) after an addition of 45 μl/well of scintillant (Microscint20, Cat.#6013621, Packard). The inhibition percent at each concentration of compound was calculated, and IC50 values were determined from the inhibition curve. [Determination of IC50 Values of Compounds in Calcium Mobilization Assay] (IC50 Ca2+) (1) Cell • Human CCR3-transformed K562 cells were used. The human CCR3-transformed K562 cells were maintained in RPMI-1640 supplemented with 10% FCS, 55 μM 2-mercaptoethanol (Cat.#21985-023, Life Technologies), 1 mM sodium pyruvate, 100 units/ml of penicillin G and 100 μg/ml of streptomycin and 0.4 mg/ml of Geneticin. Before the calcium mobilization assay, cells were pretreated with 5 mM sodium butyrate-containing the culture medium (2×10^5 cells/ml) for 20-24 hours to increase the expression of CCR3. (2) Calcium Mobilization Assay • Butyrate-pretreated cells were loaded with Fluo-3AM (Cat.#F-1242, Molecular Probes) in loading buffer (Hanks' solution Cat.#05906 Nissui, 20 mM HEPES pH 7.6, 0.1% BSA, 1 mM probenecid Cat.#P-8761 Sigma, 1 μM Fluo-3AM, 0.01% pluronic F-127 Cat.#P-6866 Molecular Probes) at a cell density of 1×10^7 cells/ml. Then, cells were washed with calcium assay buffer (Hanks' solution Cat.#05906 Nissui, 20 mM HEPES pH 7.6, 0.1% BSA, 1 mM Probenecid Cat.#P-8761 Sigma). The cell suspension (3.3×10^6 cells/ml) was added into 60 μl/well in the 96-well clear bottom black plate (Cat.#3904, Costar). […]

Data set [2] deals with T1, Human CCR3. Put plainly: Calcium mobilization assay, eotaxin-stimulated. The class given is cell-based. The following applies: human CCR3-transformed K562 cells, 10 nM eotaxin; compounds of about 40 to 90% purity; read-out: Activity grade Ca2+ (IC50 class). In outline: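 Eotaxin (10 nM final) triggered calcium flux, monitored 60 s with Fluo-3AM, in butyrate-pretreated (5 mM, 20–24 h) CCR3-transfected K562 cells. Compounds preincubated 10 min; percent inhibition per concentration yielded IC50.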
On the technique in general: Calcium assays in cells follow changes in intracellular calcium, usually with a dye or a luminescent sensor.

`Cl.O=[N+]([O-])c1ccc(Oc2cccc(F)c2)c(S(=O)(=O)N2CCNCC2)c1` [Example 1-15] came in with a melting point of 227 to 229 °C. The half-inhibitory concentration (IC50) at Human CCR3 [1] lay within 1000 to 10000 nM. The compound `O=[N+]([O-])c1ccc(Oc2ccc(Cl)c(Cl)c2)c(S(=O)(=O)N2CCNCC2)c1` [Example 1-83] registered a melting point of 167 to 168 °C. In addition, the IC50 at Human CCR3 [1] is greater than 10000 nM. The like results for `Cc1cc(C)cc(Oc2ccc([N+](=O)[O-])cc2S(=O)(=O)N2CCN(Cc3ccccc3)CC2)c1` [Example 4-9] were, in that order, 123 to 124 °C and greater than 10000 nM. Turning to `Cc1cccc(Oc2ccc([N+](=O)[O-])cc2S(=O)(=O)N2CCNCC2)c1.Cl` [Example 1-17], the melting point was in the range of 242 to 244 °C. Further, the 50% inhibitory concentration (IC50) on Human CCR3 [1] was less than 1000 nM. The like results for `Cc1cc(C)cc(Oc2ccc([N+](=O)[O-])cc2S(=O)(=O)N2CCC(N3CCCC3)CC2)c1` [Example 4-11] were, in that order, 156 to 158 °C and less than 1000 nM.

Turning to `O=[N+]([O-])c1ccc(Oc2cccc(Cl)c2Cl)c(S(=O)(=O)N2CCNCC2)c1` [Example 1-82], the melting point was in the range of 173 to 174 °C. On Human CCR3 [1], the IC50 fell in the range of 1000 to 10000 nM. For `Cc1cc(C)cc(Nc2ccc([N+](=O)[O-])cc2S(=O)(=O)N2CCNCC2)c1` [Example 3-1, N-(3,5-dimethyl-phenyl)-4-nitro-2-(1-piperazinylsulfonyl)aniline dihydrochloride], the IC50 at Human CCR3 [1] is less than 1000 nM. The compound `O=[N+]([O-])c1ccc(Oc2ccccc2F)c(S(=O)(=O)N2CCNCC2)c1` [Example 1-14] gave a melting point of 118 to 120 °C. Moreover, on Human CCR3 [1], the IC50 fell in the range of 1000 to 10000 nM. For `Cc1ccc(Oc2ccc([N+](=O)[O-])cc2S(=O)(=O)N2CCNCC2)cc1.Cl` [Example 1-16] the same measures were 188 to 192 °C and greater than 10000 nM.

As for `COCCCN1CCN(S(=O)(=O)c2cc([N+](=O)[O-])ccc2Sc2cc(Cl)cc(Cl)c2)CC1` [Example 2-9], the melting point lay in the range of 131 to 133 °C. Further, the IC50 at Human CCR3 [2] was less than 1000 nM.

For `N#Cc1ccc(Oc2cc(Cl)cc(Cl)c2)c(S(=O)(=O)N2CCN3CCCC3C2)c1` (centres unmarked) [Example 13-12], the melting point turned out to be 161 °C. In addition, on Human CCR3 [1], the IC50 is less than 1000 nM.

`Cc1cc(C)c(Sc2ccc([N+](=O)[O-])cc2S(=O)(=O)N2CCNCC2)c(C)c1.Cl` [Example 2-15]: the melting point worked out at 274 °C. On Human CCR3 [2], the concentration for half-maximal inhibition (IC50) was in the range of 1000 to 10000 nM. The like results for `CN1CCC(N2CCN(S(=O)(=O)c3cc([N+](=O)[O-])ccc3Oc3cc(Cl)cc(Cl)c3)CC2)CC1` [Example 4-32] were, in that order, 167 to 169 °C and less than 1000 nM. For `Cl.N[C@@H]1CCN(S(=O)(=O)c2cc([N+](=O)[O-])ccc2Oc2cc(Cl)cc(Cl)c2)C1` [Example 1-99] the same measures were 247 to 250 °C and less than 1000 nM. With `CN(C)c1ccc(NS(=O)(=O)c2cc([N+](=O)[O-])ccc2Oc2cc(Cl)cc(Cl)c2)cc1` [Example 4-25], the melting point was 226 °C. Moreover, the IC50 on Human CCR3 [1] was in the range of 1000 to 10000 nM. In the case of `Cl.O=[N+]([O-])c1ccc(Sc2cccc(Cl)c2)c(S(=O)(=O)N2CCNCC2)c1` [Example 2-17], the melting point lay within 235 to 237 °C. Besides, the IC50 at Human CCR3 [2] was less than 1000 nM. `Cc1cc(C)cc(Oc2ccc([N+](=O)[O-])cc2S(=O)(=O)N2CCN(C=O)CC2)c1` [Example 4-10]: the melting point lay within 210 to 212 °C. Besides, the concentration for half-maximal inhibition (IC50) at Human CCR3 [1] was greater than 10000 nM. Turning to `Cc1cc(C)cc(Oc2cccc(F)c2S(=O)(=O)N2CCNCC2)c1.Cl` [Example 1-58], the melting point is 204 °C. The IC50 at Human CCR3 [2] is less than 1000 nM. For `CCOC(=O)CCN1CCN(S(=O)(=O)c2cc([N+](=O)[O-])ccc2Sc2cc(Cl)cc(Cl)c2)CC1` [Example 2-6] the same measures were 156 to 158 °C and less than 1000 nM. For `O=[N+]([O-])c1ccc(Oc2cc(Cl)cc(Cl)c2)c(S(=O)(=O)NC2CCNCC2)c1` [Example 1-78] the same measures were greater than 300 °C and less than 1000 nM. `NCC1CCN(S(=O)(=O)c2cc([N+](=O)[O-])ccc2Sc2cc(Cl)cc(Cl)c2)CC1` [Example 2-7] displayed a melting point of 147 to 149 °C. For the same compound, the half-maximal inhibitory concentration (IC50) at Human CCR3 [2] was less than 1000 nM. For `Cl.O=[N+]([O-])c1ccc(Sc2cc(Cl)cc(Cl)c2)c(S(=O)(=O)NCC2CCNCC2)c1` [Example 2-8] the same measures were 205 to 207 °C and less than 1000 nM. For `Cc1cc(C)cc(Oc2cc(C)ccc2S(=O)(=O)N2CCNCC2)c1.Cl` [Example 1-52] the same measures were 136 °C and less than 1000 nM.

For the compound `Cc1cc(C)cc(Sc2ccc([N+](=O)[O-])cc2S(=O)(=O)N2CCN(CC3CCCO3)CC2)c1` (centres unmarked) [Example 4-28], the melting point is 143 to 144 °C. Further, the 50% inhibitory concentration (IC50) at Human CCR3 [2] was less than 1000 nM.

For the origin of these results see patent publication US8242118B2, “Arylsulfonamide derivatives for use as CCR3 antagonists in the treatment of inflammatory and immunological disorders” (Axikin Pharmaceuticals Inc., priority 2001, dated 2012).
